In patent publication US20150158810A1, “PREVENTION OR SUPPRESSION OF CYRSTALLISATION OF BORIC ACID PRESENT IN AN AQUEOUS PHASE” (COMMISSARIAT À L'ÉNERGIE ATOMIQUE ET AUX ÉNERGIES …, priority 2012, published 2015):

Key:
[1] = crystallization of boric acid in aqueous phase, temperature cycle N; type: physicochemical
Experimental: (§1) The tests described in the examples hereafter are conducted by means of a device of the type of the one illustrated in the single FIGURE.
(§2) The device consists of a beaker 10 with a double glass wall 11, inside which flows a heat transfer fluid 12. The beaker 10 also contains a U-shaped metal tube 13, which contains a circulating heat transfer fluid 14.
(§3) The temperatures of the heat transfer fluids 12 and 14 are each adjusted independently of the other, by a heat generator (not shown in the single FIGURE).
(§4) However, the temperature of the heat transfer fluid 14 is adjusted so that it is always strictly less than that of the heat transfer fluid 12, typically lower by 1° C. to 10° C. If it is assumed that heat conduction of the material making up the metal tube 13 occurs without any notable loss, the walls of the tube 13 […] thus form a so-called ? cold ? element.
(§5) Two temperature cycles may be applied to an aqueous phase 15 containing boric acid, which is poured into the beaker 10.
A temperature cycle ? […]
(§6) Regardless of the relevant temperature cycle, a crystallization rate is defined at the end of one of these temperature cycles, which corresponds to the ratio of the mass of boric acid crystals measured at the end of this cycle, to the total initially introduced mass of boric acid.

[2] = crystallization of boric acid in aqueous phase, temperature cycle P (with a penalty); type: physicochemical
Experimental: as §1, §2, §3, §4, §5
A temperature cycle ? P ? […]
as §6

reduction in the crystallization of boric acid in an aqueous phase in presence of the compound [1]	reduction of the crystallization of boric acid in an aqueous phase in presence of the compound [2]	Compound
appreciable reduction		NC(CO)(CO)CO [Tris, 2-amino-2-(hydroxymethyl)-propane-1,3-diol]
appreciable reduction	large reduction	OCC(CO)(CO)CO [pentaerythritol]
